Values quoted from earlier work in US20190070210A1, “COMPOSITION AND METHODS FOR CONDITIONS ASSOCIATED WITH CHRONIC PULMONARY OBSTRUCTIVE DISEASE” (priority 2017, published 2019).

Conditions: solution, 4° C. and neutral pH

NC(=O)c1ccc[n+]([C@@H]2O[C@H](COP(=O)([O-])OP(=O)(O)OC[C@H]3O[C@@H](n4cnc5c(N)ncnc54)[C@H](O)[C@@H]3O)[C@@H](O)[C@H]2O)c1 [NAD+, nicotinamide adenine dinucleotide]
time for which solutions are stable: about a week
